We go through 20 molecules from ChEMBL document CHEMBL1146405, “Dioncophylline A as a growth-retarding agent against the herbivorous insect Spodoptera littoralis: structure-activity relationships” (J Nat Prod, 1997).

This experiment has as its system Spodoptera littoralis. As to the kind of experiment: Insecticidal activity against Spodoptera littoralis larvae assessed per gram of fresh weight of diet administered through artificial diet measured after 6 days. It counts as functional, organism-based.
Turning to `COc1cccc2c(-c3ccc4c(c3O)[C@@H](C)N(C(C)=O)[C@H](C)C4)c(C)cc(OC)c12` [N-ACETYLDIONCOPHYLLINE A], the EC50 is 291 µg/g.
In the case of `COc1cccc2c(-c3ccc4c(c3OCc3ccccc3)[C@@H](C)N(C=O)[C@H](C)C4)c(C)cc(OC)c12` [8-O-BENZYL-N-FORMYLDIONCOPHYLLINE A] it was 67.1 µg/g; in that of `COc1cccc2c(-c3ccc4c(c3O)[C@@H](C)N(C=O)[C@H](C)C4)c(C)cc(OC)c12` [N-FORMYLDIONCOPHYLLINE A], 454 µg/g; in that of `COc1cccc2c(-c3ccc4c(c3O)[C@@H](C)N(C)[C@H](C)C4)c(C)cc(OC)c12`, 377 µg/g.
For `COc1cccc2c(-c3ccc4c(c3OCc3ccccc3)[C@@H](C)N[C@H](C)C4)c(C)cc(OC)c12` [8-O-BENZYLDIONCOPHYLLINE A] the value was 27.1 µg/g; for `COc1cccc2c(-c3ccc4c(c3OC(C)C)[C@@H](C)N[C@H](C)C4)c(C)cc(OC)c12` [8-O-ISOPROPYLDIONCOPHYLLINE A], 94.1 µg/g.
Regarding `COc1c(-c2c(C)cc(OC)c3c(OC)cccc23)ccc2c1[C@@H](C)N(C=O)[C@H](C)C2`, the EC50 turned out to be 171 µg/g.
As for `COc1cccc2c(-c3ccc4c(c3O)[C@@H](C)N[C@H](C)C4)c(C)cc(OC)c12` [DIONCOPHYLLINE A], the EC50 came to 277 µg/g.
In the case of `CCCCOc1c(-c2c(C)cc(OC)c3c(OC)cccc23)ccc2c1[C@@H](C)N(C=O)[C@H](C)C2` [8-O-N-BUTYL-N-FORMYLDIONCOPHYLLINE A] it was 182 µg/g; in that of `COc1cccc2c(-c3ccc4c(c3OC(C)=O)[C@@H](C)N(C(C)=O)[C@H](C)C4)c(C)cc(OC)c12` [N-ACETYL-8-O-ACETYLDIONCOPHYLLINE A], 331 µg/g.
For `COc1cccc2c(-c3ccc4c(c3OCc3ccc(Br)cc3)[C@@H](C)N[C@H](C)C4)c(C)cc(OC)c12` the value was 15.6 µg/g; for `CCCCCCCCCCCC(=O)Oc1c(-c2c(C)cc(OC)c3c(OC)cccc23)ccc2c1[C@@H](C)N(C=O)[C@H](C)C2`, more than 750 µg/g; for `COc1cccc2c(-c3ccc4c(c3OC(=O)c3ccccc3)[C@@H](C)N(C=O)[C@H](C)C4)c(C)cc(OC)c12` [8-O-BENZOYL-N-FORMYLDIONCOPHYLLINE A], 132 µg/g.
In the case of `COc1cccc2c(-c3ccc4c(c3OCc3ccc(C(F)(F)F)cc3)[C@@H](C)N[C@H](C)C4)c(C)cc(OC)c12` it was 35.1 µg/g.
`COc1cccc2c(-c3ccc4c(c3OC(C)=O)[C@@H](C)N(C=O)[C@H](C)C4)c(C)cc(OC)c12` [8-O-ACETYL-N-FORMYLDIONCOPHYLLINE A] had an EC50 of 361 µg/g.
For `COc1cccc2c(-c3ccc4c(c3OC(=O)C(C)(C)C)[C@@H](C)N(C=O)[C@H](C)C4)c(C)cc(OC)c12` [N-FORMYL-8-O-PIVALOYLDIONCOPHYLLINE A] the value was 333 µg/g; for `COc1cccc2c(-c3ccc4c(c3OCc3ccc(Cl)cc3)[C@@H](C)N[C@H](C)C4)c(C)cc(OC)c12`, 16.4 µg/g; for `COc1cccc2c(-c3ccc4c(c3OC(C)C)[C@@H](C)N(C=O)[C@H](C)C4)c(C)cc(OC)c12` [N-FORMYL-8-O-ISOPROPYLDIONCOPHYLLINE A], 130 µg/g.
For `COc1cccc2c(-c3cc(Br)c4c(c3O)[C@@H](C)N[C@H](C)C4)c(C)cc(OC)c12` [5-BROMODIONCOPHYLLINE A], the EC50 turned out to be 193 µg/g.
For `COc1cccc2c(-c3ccc4c(c3OCc3ccc([N+](=O)[O-])cc3)[C@@H](C)N[C@H](C)C4)c(C)cc(OC)c12` the value was 25.6 µg/g.
